Test system: uterine gene expression
Assay: Gene expression profiling (HGU133A) in the uterus of ovariectomized monkeys treated with estradiol, tamoxifen or raloxifene
Type: in vivo, cynomolgus monkeys (Macaca fascicularis)
Details: uterus; OVX monkeys

## C#C[C@]1(O)CC[C@H]2[C@@H]3CCc4cc(O)ccc4[C@H]3CC[C@@]21C [EE]
  Fold change relative to OVX: ATPase, H+ transporting, lysosomal 38 kda, V0 subunit d isoform 1: 1.9 fold
  Fold change relative to OVX: ATPase, Na+/K+ transporting, beta 3 polypeptide: 2.2 fold
  Fold change relative to OVX: Biglycan: 1.9 fold
  Fold change relative to OVX: CDC28 protein kinase regulatory subunit 2: 3.8 fold
  Fold change relative to OVX: Cadherin 11, type 2, OB-cadherin (osteoblast): 3.4 fold
  Fold change relative to OVX: Calcium channel, voltage-dependent, beta 2 subunit: 0.6 fold
  Fold change relative to OVX: Catenin (cadherin-associated protein), alpha-like 1: 0.5 fold
  Fold change relative to OVX: Chitinase 3-like 1 (cartilage glycoprotein-39): 3.9 fold
  Fold change relative to OVX: Chloride intracellular channel 4: 1.7 fold
  Fold change relative to OVX: Chondroitin sulfate proteoglycan 2 (versican): 3.6 fold
  Fold change relative to OVX: Collagen, type I, alpha 1: 6.6 fold
  Fold change relative to OVX: Collagen, type IV, alpha 2: 3.3 fold
  Fold change relative to OVX: Collagen, type V, alpha 1: 4.0 fold
  Fold change relative to OVX: Collagen, type VI, alpha 3: 3.7 fold
  Fold change relative to OVX: Collagen, type VIII, alpha 2: 2.1 fold
  Fold change relative to OVX: Cyclin D1 (PRAD1: parathyroid adenomatosis 1): 2.4 fold
  Fold change relative to OVX: Cysteine-rich, angiogenic inducer, 61: 3.5 fold
  Fold change relative to OVX: Cytochrome c oxidase subunit via polypeptide 1: 1.5 fold
  Fold change relative to OVX: Cytochrome c oxidase subunit viia polypeptide 2 (liver): 1.8 fold
  Fold change relative to OVX: Dermatopontin: 1.9 fold
  Fold change relative to OVX: Dishevelled associated activator of morphogenesis 1: 3.1 fold
  Fold change relative to OVX: Fibroblast growth factor 2 (basic): 2.1 fold
  Fold change relative to OVX: Fibulin 1: 1.6 fold
  Fold change relative to OVX: Four and a half LIM domains 2: 3.0 fold
  Fold change relative to OVX: G1 to S phase transition 1: 1.6 fold
  Fold change relative to OVX: Growth associated protein 43: 2.0 fold
  Fold change relative to OVX: H2A histone family, member Y: 1.4 fold
  Fold change relative to OVX: Heparan sulfate proteoglycan 2 (perlecan): 3.5 fold
  Fold change relative to OVX: Histone H2A.F/Z variant: 1.4 fold
  Fold change relative to OVX: Insulin-like growth factor binding protein 2, 36 kda: 7.1 fold
  Fold change relative to OVX: Insulin-like growth factor binding protein 5: 5.2 fold
  Fold change relative to OVX: Integrin, beta 5: 1.7 fold
  Fold change relative to OVX: Intercrine-alpha, mrna sequence: 1.5 fold
  Fold change relative to OVX: LDL receptor adaptor protein: 0.6 fold
  Fold change relative to OVX: LIM and senescent cell antigen-like domains 1: 3.7 fold
  Fold change relative to OVX: Laminin, beta 1: 1.4 fold
  Fold change relative to OVX: Latent transforming growth factor beta binding protein 1: 3.6 fold
  Fold change relative to OVX: Matrix metalloproteinase 19: 6.3 fold
  Fold change relative to OVX: Mitogen-activated protein kinase kinase kinase kinase 4: 0.6 fold
  Fold change relative to OVX: Nidogen (enactin): 3.6 fold
  Fold change relative to OVX: Osteoglycin (osteoinductive factor, mimecan): 2.2 fold
  Fold change relative to OVX: Peroxiredoxin 1: 1.9 fold
  Fold change relative to OVX: Phosphatase and tensin homolog (mutated in multiple advanced cancers 1): 1.8 fold
  Fold change relative to OVX: Phospholipid transfer protein: 2.0 fold
  Fold change relative to OVX: Pituitary tumour-transforming 1 interacting protein: 1.8 fold
  Fold change relative to OVX: Procollagen C-endopeptidase enhancer: 3.2 fold
  Fold change relative to OVX: Procollagen-proline, 2-oxoglutarate 4-dioxygenase (proline 4-hydroxylase), alpha polypeptide II: 2.6 fold
  Fold change relative to OVX: Progesterone receptor: 9.7 fold
  Fold change relative to OVX: Protein tyrosine kinase 9: 2.1 fold
  Fold change relative to OVX: SET domain, bifurcated 1: 3.0 fold
  Fold change relative to OVX: SPARC-like 1 (mast9, hevin): 2.4 fold
  Fold change relative to OVX: Secreted frizzled-related protein 1: 7.1 fold
  Fold change relative to OVX: Secreted frizzled-related protein 4: 4.2 fold
  Fold change relative to OVX: Secreted protein, acidic, cysteine-rich (osteonectin): 2.9 fold
  Fold change relative to OVX: Serine (or cysteine) proteinase inhibitor, clade H (heat shock protein 47), member 1, (collagen binding protein 1): 3.3 fold
  Fold change relative to OVX: Solute carrier family 22 (organic cation transporter), member 1-like: 1.9 fold
  Fold change relative to OVX: Solute carrier family 25 (mitochondrial carrier; adenine nucleotide translocator), member 5: 2.5 fold
  Fold change relative to OVX: Stem cell growth factor; lymphocyte secreted C-type lectin: 2.2 fold
  Fold change relative to OVX: Tenascin C (hexabrachion): 1.2 fold
  Fold change relative to OVX: Testis Enhanced Gene Transcript (Bax Inhibitor 1): 1.8 fold
  Fold change relative to OVX: Thioredoxin interacting protein: 0.3 fold
  Fold change relative to OVX: Transforming growth factor, beta-induced, 68 kda: 1.7 fold
  Fold change relative to OVX: Ubiquinol-cytochrome c reductase, Rieske iron-sulfur polypeptide 1: 1.4 fold
  Fold change relative to OVX: Wingless-type MMTV integration site family, member 2B: 2.6 fold
  Fold change relative to OVX: Wingless-type MMTV integration site family, member 16: 1.1 fold
  Fold change relative to SHAM control: ATPase, H+ transporting, lysosomal 38 kda, V0 subunit d isoform 1: 1.6 fold
  Fold change relative to SHAM control: ATPase, Na+/K+ transporting, beta 3 polypeptide: 1.2 fold
  Fold change relative to SHAM control: Biglycan: 0.7 fold
  Fold change relative to SHAM control: CDC28 protein kinase regulatory subunit 2: 2.3 fold
  Fold change relative to SHAM control: Cadherin 11, type 2, OB-cadherin (osteoblast): 2.1 fold
  Fold change relative to SHAM control: Calcium channel, voltage-dependent, beta 2 subunit: 1.1 fold
  Fold change relative to SHAM control: Catenin (cadherin-associated protein), alpha-like 1: 1.0 fold
  Fold change relative to SHAM control: Chitinase 3-like 1 (cartilage glycoprotein-39): 2.8 fold
  Fold change relative to SHAM control: Chloride intracellular channel 4: 0.9 fold
  Fold change relative to SHAM control: Chondroitin sulfate proteoglycan 2 (versican): 2.6 fold
  Fold change relative to SHAM control: Collagen, type I, alpha 1: 2.4 fold
  Fold change relative to SHAM control: Collagen, type IV, alpha 2: 1.9 fold
  Fold change relative to SHAM control: Collagen, type V, alpha 1: 1.9 fold
  Fold change relative to SHAM control: Collagen, type VI, alpha 3: 2.1 fold
  Fold change relative to SHAM control: Collagen, type VIII, alpha 2: 1.2 fold
  Fold change relative to SHAM control: Cyclin D1 (PRAD1: parathyroid adenomatosis 1): 2.7 fold
  Fold change relative to SHAM control: Cysteine-rich, angiogenic inducer, 61: 2.0 fold
  Fold change relative to SHAM control: Cytochrome c oxidase subunit via polypeptide 1: 1.3 fold
  Fold change relative to SHAM control: Cytochrome c oxidase subunit viia polypeptide 2 (liver): 1.8 fold
  Fold change relative to SHAM control: Dermatopontin: 1.1 fold
  Fold change relative to SHAM control: Dishevelled associated activator of morphogenesis 1: 2.0 fold
  Fold change relative to SHAM control: Fibroblast growth factor 2 (basic): 1.1 fold
  Fold change relative to SHAM control: Fibulin 1: 0.9 fold
  Fold change relative to SHAM control: Four and a half LIM domains 2: 1.9 fold
  Fold change relative to SHAM control: G1 to S phase transition 1: 1.3 fold
  Fold change relative to SHAM control: Growth associated protein 43: 0.8 fold
  Fold change relative to SHAM control: H2A histone family, member Y: 1.2 fold
  Fold change relative to SHAM control: Heparan sulfate proteoglycan 2 (perlecan): 1.6 fold
  Fold change relative to SHAM control: Histone H2A.F/Z variant: 1.4 fold

Source: patent publication US20130040882A1, “USE OF FIBROBLAST GROWTH FACTOR FRAGMENTS” (NOVARTIS AG, priority 2003, published 2013)
